Measured values reported in PMC6251916, “CKD-506, a novel HDAC6-selective inhibitor, improves renal outcomes and survival in a mouse model of systemic lupus erythematosus” (Scientific Reports, 2018).

Key:
HDAC6 and HDAC1 = tested on: HDAC6 and HDAC1; design: method as in PMID 22262760; details: cited from earlier work
[1] = design: method as in PMID 27646843; details: cited from earlier work
NZB/W F1 female mice [2] = test: Murine SLE model: flow cytometry of splenocytes; assay type: in vivo, mouse; details: methylprednisolone 5 mg/kg/day
Excerpt: Single cell suspensions were obtained from the spleens of NZB/W F1 mice at autopsy (at 43–44 weeks of age). The splenocytes were stained with PerCP-Cy5.5-conjugated anti-mouse CD3e (PerCP-cy5.5-CD3e, eBioscience, San Diego, CA, USA), fluorescein isothiocyanate (FITC)-conjugated anti-mouse CD4 (FITC-CD4, BD Biosciences, San Jose, CA, USA), PE-cyanine7-conjugated anti-mouse CD8a (eBioscience), allo-phycocyanin (APC)-conjugated anti-mouse CD25 (BD Biosciences) and PE-conjugated anti-mouse CD138 (BD Biosciences).
T cell profile was analyzed as described previously; briefly, we examined proportions of Th1 cells (CD4^+CD25^+T-bet^+), Th2 cells (CD4^+CD25^+GATA-3^+), Th17 cells (CD4^+CD25^+ROR-γt^+), and Treg cells (CD4^+CD25^+Foxp3^+). To analyze T helper subsets, the splenocytes were stained with antibodies to CD4 and CD25 (FITC-conjugated anti-mouse CD4 and APC-conjugated anti-mouse CD25, BD Biosciences). Cells were fixed and permeabilized prior to staining with T-bet, GATA-3, ROR-γt and Foxp3 antibodies (PE-, BD Biosciences).

NZB/W F1 female mice [3] = test: Murine SLE model: kidney histopathology (H&E, PAS, Masson trichrome); assay type: in vivo, mouse; details: methylprednisolone 5 mg/kg/day
Excerpt: (§1) Survival had been monitored until 42 weeks of age.
Kidneys were harvested from mice at the end of the study (at 43–44 weeks of age). For light microscopy, the tissues were fixed in 10% neutral buffered formalin, embedded in paraffin wax, sectioned at a thickness of 5 μm and stained with H&E (BBC Biochemical, Mount Vernon, WA, USA). Periodic acid/Schiff (PAS stain kit, BBC Biochemical) staining and Masson trichrome (BBC Biochemical) staining were used for the detection of […] and fibrosis, respectively. Inflammatory cell infiltration and mesangial proliferation were scored on a 4-point scale as 0 (none), 1+ (mild), 2+ (moderate), 3+ (moderate to severe) and 4+ (severe).

NZB/W F1 female mice [4] = test: Murine SLE model: serum chemistry and necropsy; details: group P: methylprednisolone 5 mg/kg/day; serum at autopsy; mean ± SD
Method: Control mice received 150 μL of vehicle (Ethanol: Kolliphor® EL: saline = 1:1:8) and were subjected to the same schedule. Survival rate and incidence of severe proteinuria (percent individual mice with urine protein ≥300 mg/dL) were calculated. Survival had been monitored until 42 weeks of age.

NZB/W F1 female mice [5] = test: Murine SLE model: BUN and anti-dsDNA antibody levels; assay type: in vivo, mouse; details: methylprednisolone 5 mg/kg/day
Method: as §1
Blood samples had been collected from mice under isoflurane anesthesia every 4 weeks (at 24, 28, 32, 36, 40 weeks of age and autopsy), and the obtained serum samples had been kept at −70 °C until the analysis.

NZB/W F1 female mice [6] = test: Murine SLE model: serum cytokine levels (Milliplex); assay type: in vivo, mouse
Method: Serum samples were assayed using Milliplex® MAP Kits (Millipore) for granulocyte macrophage-colony stimulating factor (GM-CSF), interferon-γ (IFN-γ), interleukin-1α (IL-1α), IL-1β, IL-10, IL-12(p70), IL-15, IL-17a, IL-2, IL-4, IL-6, tumor necrosis factor α (TNF-α), transforming growth factor beta 1 (TGF-β1), IL-22, IL-23, IFN-inducible protein 10 (IP-10 (CXCL10)) and chemokine (C-C motif) ligand 2 (CCL2 (MCP-1)).

NZB/W F1 female mice [7] = test: Murine SLE model: survival, severe proteinuria, UP/C; assay type: in vivo, mouse; details: methylprednisolone 5 mg/kg/day i.p.
Method: as §1
During the experiments, urine protein levels had been measured every 2 weeks. Fresh urine was collected by performing abdominal massages. Urine protein was measured with the Coomassie Brilliant Blue method as described in our previous study. Urine creatinine was measured using a DRI-CHEM 3000 Colorimetric analyzer (Fujifilm, Tokyo, Japan) with the urine diluted in deionized water (1:100 dilution).

NZB/W F1 female mice [8] = test: Murine SLE model: cytokine levels in kidney extracts; assay type: in vivo, mouse; details: group P: methylprednisolone 5 mg/kg/day; at autopsy; mean ± SD; n = 13
Method: The kidneys were weighed and then transferred into dPBS (Welgene) supplemented with anti-protease Complete TM cocktail (Boehringer) using 12.5 μl of dPBS per milligram of wet weight tissue. Samples were homogenized twice using an Automill TK-AM5 freeze-crushing cell homogenizer (W 280 mm × D 390 mm × H 290 mm, Tokken Inc., Chiba, Japan) at 1,400 rpm for 90 seconds and then centrifuged at 16,000 × g for 15 min at 4 °C. The supernatants were collected and total protein concentrations were determined in the kidney extracts using a bicinchoninic acid (BCA) protein assay kit™ (Pierce). Total protein concentrations of the kidney extracts were adjusted to 2 mg/dl and used for the analysis of IFN-γ, IL-10, IL-15, IL-17, IL-1β, IL-4, IL-6, IP-10, MCP-1, CCL4, RANTES, TNF-α and sCD40L with Milliplex® MAP Kits (Millipore).

[9] = group P: methylprednisolone 5 mg/kg/day, at autopsy, mean ± SD, n = 13

O=C(CCCCCCNC(=O)c1cnc(N(c2ccccc2)c2ccccc2)nc1)NO [ACY-1215]
selectivity for HDAC6 and HDAC1 at IC50 (HDAC6 and HDAC1): 11 fold | significant adverse effects reported in clinical trials [1]: grade 3 anemia and neutropenia

C[C@H]1C[C@@H]2[C@H]([C@@H](O)C[C@@]3(C)[C@H]2CC[C@]3(O)C(=O)CO)[C@@]2(C)C=CC(=O)C=C12 [methylprednisolone, reference compound]
ratio of CD4+CD8−/CD4−CD8+ T cells in spleen vs vehicle (NZB/W F1 female mice [2]): significantly lower | fewer CD4−CD8− cells compared with group vehicle (NZB/W F1 female mice [2]; spleen): 4.3% | fewer CD138+ cells compared with group vehicle (NZB/W F1 female mice [2]; spleen): 16.3% | Degree of inflammatory cell infiltration in kidneys vs vehicle (NZB/W F1 female mice [3]): significantly lower | Ca (NZB/W F1 female mice [4]): 9.35 ± 0.53 mg/dL | Levels of BUN vs vehicle (NZB/W F1 female mice [5]; 36 weeks of age): significantly lower | Levels of BUN vs vehicle (NZB/W F1 female mice [5]; at autopsy): significantly lower | Serum IFN-γ (NZB/W F1 female mice [6]; [9]): 0.07 ± 0.24 pg/mL | Serum IL-1α (NZB/W F1 female mice [6]; [9]): 666.21 ± 527.20 pg/mL | Serum IL-1β (NZB/W F1 female mice [6]; [9]): 0.65 ± 2.34 pg/mL | Serum IL-2 (NZB/W F1 female mice [6]; [9]): 0.09 ± 0.34 pg/mL | Serum IL-4 (NZB/W F1 female mice [6]; [9]): 1.49 ± 0.20 pg/mL | Serum IL-6 (NZB/W F1 female mice [6]; [9]): 3.36 ± 3.30 pg/mL | Serum IL-10 (NZB/W F1 female mice [6]; [9]): 18.41 ± 12.97 pg/mL | Serum IL-12(70) (NZB/W F1 female mice [6]; [9]): 1.04 ± 3.76 pg/mL | Serum IL-15 (NZB/W F1 female mice [6]; [9]): 45.25 ± 14.91 pg/mL | Serum IL-17 (NZB/W F1 female mice [6]; [9]): 3.59 ± 1.73 pg/mL | Serum IL-22 (NZB/W F1 female mice [6]; [9]): 17.68 ± 16.19 pg/mL | Serum IL-23 (NZB/W F1 female mice [6]; [9]): 22.31 ± 61.77 pg/mL | Serum TGF-β1 (NZB/W F1 female mice [6]; [9]): 66067.78 ± 18777.09 pg/mL | Serum TNF-α (NZB/W F1 female mice [6]; [9]): 1.57 ± 2.07 pg/mL | Mean serum levels of CCL2 vs vehicle (NZB/W F1 female mice [6]; methylprednisolone 5 mg/kg/day, 36 weeks of age, difference not statistically significant): lower | Survival rate at the end of the study (NZB/W F1 female mice [7]; 42-weeks of age): 93.3% | incidence of severe proteinuria (urine protein >300 mg/dl) (NZB/W F1 female mice [7]; 42 weeks of age): 20% | Kidney extract CCL2 (NZB/W F1 female mice [8]): 19.91 ± 11.71 pg/mL | Kidney extract CCL4 (NZB/W F1 female mice [8]): 0.60 ± 1.84 pg/mL | Kidney extract IFN-γ (NZB/W F1 female mice [8]): 16.91 ± 5.10 pg/mL | Kidney extract IL-1β (NZB/W F1 female mice [8]): 4.80 ± 2.85 pg/mL | Kidney extract IL-4 (NZB/W F1 female mice [8]): 0.06 ± 0.08 pg/mL | Kidney extract IL-6 (NZB/W F1 female mice [8]): 2.95 ± 0.59 pg/mL | Kidney extract IL-10 (NZB/W F1 female mice [8]): 12.14 ± 2.02 pg/mL | Kidney extract IL-15 (NZB/W F1 female mice [8]): 40.90 ± 9.01 pg/mL | Kidney extract IP-10 (NZB/W F1 female mice [8]): 50.64 ± 15.63 pg/mL | Kidney extract RANTES (NZB/W F1 female mice [8]): 9.77 ± 15.22 pg/mL | Kidney extract TNF-α (NZB/W F1 female mice [8]): 0.07 ± 0.24 pg/mL
